Measured values as given in ChEMBL document CHEMBL1201862, “PubChem BioAssay data set” (2004).
Calls of active or inactive are those of the source.

How the values were obtained:
Estrogen receptor beta [1] = biological target: T1, Estrogen receptor beta (Homo sapiens, UniProt Q92731);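 further: recombinant ER-beta bound to coactivator SRC1 peptide in presence of estradiol agonist; inhibitors block coactivator peptide binding and lower the FRET signal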
[2] = biological target: T2, Carboxy-terminal domain RNA polymerase II polypeptide A small phosphatase 1 (Homo sapiens, UniProt Q9GZU7); test: inhibitors of CTDSP1, concentration-response testing, biochemical assay, absorbance-based, actives from ultra-high-throughput screening (AID 540297); format: functional
T2 sequence (Q9GZU7 whole entry): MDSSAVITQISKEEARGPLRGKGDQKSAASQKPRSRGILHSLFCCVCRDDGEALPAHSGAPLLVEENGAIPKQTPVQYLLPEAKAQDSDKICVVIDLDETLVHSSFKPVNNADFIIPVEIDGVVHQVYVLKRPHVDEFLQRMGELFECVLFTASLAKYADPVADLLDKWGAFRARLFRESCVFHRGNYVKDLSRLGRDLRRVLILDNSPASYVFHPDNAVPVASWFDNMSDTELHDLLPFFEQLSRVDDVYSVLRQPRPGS

Estrogen receptor beta [3] = biological target: T1, Estrogen receptor beta; test: ERβ–SRC-3 coactivator interaction inhibitors, confirmation, orthogonal assay, biochemical, ELISA, streptavidin-HRP readout (AID 1060)
[4] = biological target: T3, Tyrosine-protein phosphatase non-receptor type 7 (Homo sapiens, UniProt P35236); test: inhibitors of human HePTP phosphatase, […], biochemical, absorbance, leukemia target (AID 521); format: functional
T3 sequence (P35236 whole entry): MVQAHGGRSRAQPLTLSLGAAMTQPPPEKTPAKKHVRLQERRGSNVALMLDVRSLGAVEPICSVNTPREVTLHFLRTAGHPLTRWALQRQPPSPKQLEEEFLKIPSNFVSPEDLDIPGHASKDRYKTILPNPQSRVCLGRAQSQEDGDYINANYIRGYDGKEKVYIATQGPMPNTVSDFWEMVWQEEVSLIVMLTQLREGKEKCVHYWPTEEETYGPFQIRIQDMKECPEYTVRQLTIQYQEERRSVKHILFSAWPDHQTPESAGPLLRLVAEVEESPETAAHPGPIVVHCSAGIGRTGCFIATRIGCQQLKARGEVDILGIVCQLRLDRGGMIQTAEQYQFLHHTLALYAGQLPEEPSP

[5] = Luminescence Cell-Based Dose Confirmation to Identify Activators of 5'UTR Stem-Loop Driven Alpha-Synuclein mRNA Translation in H4 Neuroglioblastoma Cells. [Related pubchem assays: 1829 (Project Summary), 1814 (Primary HTS)]; format: functional
[6] = Luminescence Cell-Based Dose Response HTS to Identify Activators of Luciferase Translation or Activity in H4 […] Cells. [Related pubchem assays: 1829 (Project Summary), 1814 (Primary HTS)]; format: functional
[7] = Luminescence Cell-Based Dose Response to Identify Activators of 5'UTR Stem-Loop Driven Prion Protein mRNA Translation in H4-C Neuroglioblastoma Cells. [Related pubchem assays: 1829 (Project Summary), 1814 (Primary HTS)]; format: functional
H4 = test: Luminescence Cell-Based Dose Response HTS to Identify Activators of 5'UTR Stem-Loop Driven Prion Protein mRNA Translation in H4 Neuroglioblastoma Cells. [Related pubchem assays: 1829 (Project Summary), 1814 (Primary HTS)]; format: functional; settings: Homo sapiens
[8] = Luminescence Cell-Based Dose Response to Identify Activators of Luciferase Translation or Activity in H4-C Neuroglioblastoma Cells. [Related pubchem assays: 1829 (Project Summary), 1814 (Primary HTS)]; format: functional
[9] = biological target: T4, Zinc finger protein mex-5 (Caenorhabditis elegans, UniProt Q9XUB2); test: MEX-5/TCR-2 RNA interaction inhibitors, dose response, biochemical, C. elegans, fluorescence polarization (AID 1960)
T4 sequence (Q9XUB2 whole entry): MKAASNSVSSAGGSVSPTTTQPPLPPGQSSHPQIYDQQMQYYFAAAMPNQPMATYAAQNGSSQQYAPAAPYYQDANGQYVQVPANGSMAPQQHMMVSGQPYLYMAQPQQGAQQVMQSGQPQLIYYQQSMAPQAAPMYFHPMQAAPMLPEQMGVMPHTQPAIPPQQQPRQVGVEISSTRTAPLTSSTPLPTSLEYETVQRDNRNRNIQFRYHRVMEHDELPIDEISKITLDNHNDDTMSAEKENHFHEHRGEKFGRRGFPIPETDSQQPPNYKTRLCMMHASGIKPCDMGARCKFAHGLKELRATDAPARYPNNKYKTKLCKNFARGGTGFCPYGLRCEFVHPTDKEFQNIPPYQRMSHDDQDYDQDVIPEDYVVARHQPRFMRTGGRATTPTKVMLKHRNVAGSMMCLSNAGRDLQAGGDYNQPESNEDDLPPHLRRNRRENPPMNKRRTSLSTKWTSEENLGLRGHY

[10] = THP-1 cell cytotoxicity, dose response, cytotoxicity control for Vif-APOBEC3G degradation inhibitor project, THP-1 cells (AID 1117359); format: functional; settings: Human immunodeficiency virus 1, THP-1
[11] = biological target: 26S proteasome non-ATPase regulatory subunit 14 (Homo sapiens, UniProt O00487); test: inhibition of proteasome subunit RPN11 – biochemical, fluorescence polarization, uHTS hits, confirmation (AID 602368); format: functional
Prothrombin = Prothrombin (Bos taurus, UniProt P00735); test: thrombin inhibition, dose response, biochemical, fluorescence polarization, uHTS hits (AID 602369); format: functional
[12] = Luminescence Cell-Based Dose Retest to Confirm Inhibitors of Cancer Stem Cells. [Related pubchem assays (depositor defined):AID2717, AID2721]; format: functional; settings: Homo sapiens
[13] = cytotoxicity in HMLE control line with eGFP shRNA, dose response, counter-screen for HMLE_sh_ECad selective toxicity project, cell-based, HMLE_sh_eGFP, luminescence (AID 463074); format: functional, Homo sapiens;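 further: HMLE human mammary epithelial cells expressing control shRNA against eGFP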
[14] = biological target: T5, RNA-binding protein pos-1 (Caenorhabditis elegans, UniProt G5EF15); test: inhibitors of POS-1/mex-3 RNA binding, dose response, biochemical, fluorescence polarization (AID 1964);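 further: purified POS-1 fused to maltose binding protein made in E. coli; potency of compounds blocking POS-1 binding to fluorescent RNA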
T5 sequence (G5EF15 whole entry): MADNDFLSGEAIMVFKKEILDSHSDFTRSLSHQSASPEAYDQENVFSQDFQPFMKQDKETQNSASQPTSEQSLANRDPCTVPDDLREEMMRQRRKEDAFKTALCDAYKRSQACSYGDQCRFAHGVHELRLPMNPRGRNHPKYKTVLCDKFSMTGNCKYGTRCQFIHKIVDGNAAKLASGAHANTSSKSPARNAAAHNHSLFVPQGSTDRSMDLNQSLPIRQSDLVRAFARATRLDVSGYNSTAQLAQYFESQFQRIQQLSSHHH

[15] = biological target: 72 kDa type IV collagenase (Homo sapiens, UniProt P08253); test: Dose Response validation of uHTS RPN11 inhibitor hits using a MMP-2 Fluorescence assay.; format: functional
[16] = inhibitors of Vif binding to APOBEC3G peptide, primary screen, biochemical, TR-FRET, GST-Vif 1-94, biotin-A3G peptide, dose response retest (AID 1117319); format: functional;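 further: TR-FRET signal of purified GST-Vif binding a biotinylated A3G peptide; inhibitors lower the FRET signal by blocking Vif and A3G binding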
Estrogen receptor = biological target: T6, Estrogen receptor (Homo sapiens, UniProt P03372);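 further: potency for inhibiting coactivator peptide recruitment to the receptor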
T6 sequence (P03372 whole entry): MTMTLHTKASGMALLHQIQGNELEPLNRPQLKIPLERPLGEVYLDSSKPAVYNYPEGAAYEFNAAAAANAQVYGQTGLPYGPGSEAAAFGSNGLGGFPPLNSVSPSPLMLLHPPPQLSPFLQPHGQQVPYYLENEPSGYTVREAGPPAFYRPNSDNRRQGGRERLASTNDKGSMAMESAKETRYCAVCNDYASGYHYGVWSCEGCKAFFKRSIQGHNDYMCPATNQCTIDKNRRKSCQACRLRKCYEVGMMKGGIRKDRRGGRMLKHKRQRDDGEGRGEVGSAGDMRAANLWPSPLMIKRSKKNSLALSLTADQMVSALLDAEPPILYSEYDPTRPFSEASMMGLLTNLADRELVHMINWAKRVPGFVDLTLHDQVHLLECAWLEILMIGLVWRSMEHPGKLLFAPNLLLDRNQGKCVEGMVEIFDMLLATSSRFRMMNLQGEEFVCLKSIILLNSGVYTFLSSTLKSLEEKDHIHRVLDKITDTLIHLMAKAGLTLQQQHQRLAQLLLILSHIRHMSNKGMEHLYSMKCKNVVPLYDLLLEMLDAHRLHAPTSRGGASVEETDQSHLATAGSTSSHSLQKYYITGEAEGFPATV

[17] = growth suppression of PTEN-null colon cells, dose response, cell-based, HCT116 PTEN knockout (AID 1047); format: functional;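 further: HCT116 colon tumor cells with PTEN knocked out; cells exposed to compound for 60 hours before readout; potency for loss of cell viability measured by luminescence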
[18] = biological target: T7, DNA repair protein RAD52 homolog (Homo sapiens, UniProt P43351); format: functional, biochemical
T7 sequence (P43351 whole entry): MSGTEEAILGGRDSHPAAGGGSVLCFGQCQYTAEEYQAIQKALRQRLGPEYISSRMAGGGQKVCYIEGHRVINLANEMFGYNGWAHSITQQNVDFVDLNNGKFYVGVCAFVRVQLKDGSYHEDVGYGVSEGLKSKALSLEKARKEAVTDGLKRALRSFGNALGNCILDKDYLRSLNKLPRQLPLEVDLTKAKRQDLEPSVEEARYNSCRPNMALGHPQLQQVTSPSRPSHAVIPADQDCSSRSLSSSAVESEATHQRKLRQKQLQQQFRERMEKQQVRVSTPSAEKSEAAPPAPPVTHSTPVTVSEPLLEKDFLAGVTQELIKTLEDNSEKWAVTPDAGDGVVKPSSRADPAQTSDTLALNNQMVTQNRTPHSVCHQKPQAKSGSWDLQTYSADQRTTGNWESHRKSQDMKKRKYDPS

[19] = cytotoxicity in HPDE-C7 cells, cell-based, fluorescence, HTS (AID 430); format: functional; settings: Homo sapiens
[20] = growth suppression of beta-catenin-knockout colon cells, dose response, cell-based, HCT116, human colon tumor (AID 1045); format: functional;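 further: HCT116 colon tumor cells with beta catenin knocked out; cells exposed to compound for 60 hours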
[21] = biological target: Dual specificity tyrosine-phosphorylation-regulated kinase 1A (Rattus norvegicus, UniProt Q63470); format: biochemical, Homo sapiens
[22] = cytotoxicity in KRAS-transformed pancreatic duct cells, primary screen, cell-based, fluorescence, HTS (AID 431); format: functional; settings: Homo sapiens;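 further: cell line used: HPDE-C7K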
[23] = HEp-2 cell cytotoxicity, dose response, cytotoxicity control for RSV inhibitor project, HTS (AID 2410); format: functional; settings: human respiratory syncytial virus

T1 sequence (Q92731 whole entry, the tested form may be a part): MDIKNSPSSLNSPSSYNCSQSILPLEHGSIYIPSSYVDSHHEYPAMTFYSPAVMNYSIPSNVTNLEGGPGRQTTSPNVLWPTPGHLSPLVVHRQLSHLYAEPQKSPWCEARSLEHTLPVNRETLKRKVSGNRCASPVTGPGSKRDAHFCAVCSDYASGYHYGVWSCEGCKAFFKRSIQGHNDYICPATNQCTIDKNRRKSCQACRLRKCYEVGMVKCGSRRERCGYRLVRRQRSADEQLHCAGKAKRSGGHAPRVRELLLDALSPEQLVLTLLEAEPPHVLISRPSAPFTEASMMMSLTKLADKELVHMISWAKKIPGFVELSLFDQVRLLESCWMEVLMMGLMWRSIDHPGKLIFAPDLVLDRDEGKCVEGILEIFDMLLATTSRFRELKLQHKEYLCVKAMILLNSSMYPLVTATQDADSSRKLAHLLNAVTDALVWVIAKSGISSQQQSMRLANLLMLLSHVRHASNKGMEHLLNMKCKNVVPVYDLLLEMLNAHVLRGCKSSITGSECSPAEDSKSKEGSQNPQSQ
26S proteasome non-ATPase regulatory subunit 14, sequence (O00487 whole entry): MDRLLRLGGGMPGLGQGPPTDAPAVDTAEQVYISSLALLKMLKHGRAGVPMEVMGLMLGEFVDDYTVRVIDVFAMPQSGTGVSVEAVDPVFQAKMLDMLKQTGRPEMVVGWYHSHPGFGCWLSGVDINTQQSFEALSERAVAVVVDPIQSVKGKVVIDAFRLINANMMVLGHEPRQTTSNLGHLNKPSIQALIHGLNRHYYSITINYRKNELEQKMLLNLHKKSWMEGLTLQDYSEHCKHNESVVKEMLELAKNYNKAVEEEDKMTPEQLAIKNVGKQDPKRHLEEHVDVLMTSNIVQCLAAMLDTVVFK
72 kDa type IV collagenase, sequence (P08253 whole entry): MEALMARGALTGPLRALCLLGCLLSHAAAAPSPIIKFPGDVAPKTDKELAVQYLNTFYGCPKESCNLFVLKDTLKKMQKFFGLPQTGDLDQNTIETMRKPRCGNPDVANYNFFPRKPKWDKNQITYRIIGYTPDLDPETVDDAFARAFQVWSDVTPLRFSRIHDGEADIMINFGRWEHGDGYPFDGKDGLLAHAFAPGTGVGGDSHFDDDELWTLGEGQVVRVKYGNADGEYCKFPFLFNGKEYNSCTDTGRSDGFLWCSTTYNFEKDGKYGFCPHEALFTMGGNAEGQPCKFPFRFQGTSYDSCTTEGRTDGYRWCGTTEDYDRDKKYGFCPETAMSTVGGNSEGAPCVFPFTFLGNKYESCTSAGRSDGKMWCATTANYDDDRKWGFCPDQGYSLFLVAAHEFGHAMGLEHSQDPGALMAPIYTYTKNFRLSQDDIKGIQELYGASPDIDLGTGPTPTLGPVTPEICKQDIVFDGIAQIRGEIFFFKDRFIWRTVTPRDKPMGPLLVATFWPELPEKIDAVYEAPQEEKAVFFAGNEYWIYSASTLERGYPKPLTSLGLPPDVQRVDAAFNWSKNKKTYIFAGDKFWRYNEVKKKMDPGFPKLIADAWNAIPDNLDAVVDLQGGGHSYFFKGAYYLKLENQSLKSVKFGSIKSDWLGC

## O=C(Nc1sc2c(c1C(=O)O)CCC2)c1ccccc1
Estrogen receptor beta [1]
  IC50: 6.88 µM (active)
[2]
  IC50: 12.1 µM (active)
Estrogen receptor beta [3]
  IC50: > 109 µM (not active)

## CC(C)(C)OC(=O)c1c(N)n(Cc2ccco2)c2nc3ccccc3nc12
[4]
  IC50: > 100 µM (not active)

## CC(C)Cc1ccc(/C=C/C(=O)N2CCOCC2)cc1
[5]
  EC50: 0.25 µM (active)
[6]
  EC50: < 0.1 µM (inconclusive)
[7]
  EC50: 0.682 µM (active)
H4
  EC50: 0.843 µM (active)
[8]
  EC50: 0.374 µM (active)

## COc1ccccc1N1CCN(S(=O)(=O)c2c[nH]cn2)CC1
[4]
  IC50: > 100 µM (not active)

## CCOc1ccccc1N1C(=O)NC(=O)/C(=C\Nc2ccc(N(CC)CC)cc2)C1=O
[9]
  EC50: > 300 µM (inconclusive)
[10]
  CC50: 26 µM (active)
[11]
  IC50: 18.3 µM (active)
Prothrombin
  IC50: 13.4 µM (active)
[12]
  AC50: 40.9 µM (active)
[13]
  AC50: 51 µM (active)
[14]
  EC50: > 300 µM (not active)
[15]
  IC50: > 100 µM (inactive)
[16]
  IC50: > 57.5 µM (active)

## CSCCOC(=O)c1[nH]c2c(c1C)C(=O)CC(c1ccco1)C2 (centres undefined)
Estrogen receptor beta [1]
  IC50: > 50 µM (not active)
Estrogen receptor
  IC50: > 50 µM (not active)

## CN1CCN(c2cc3c(c4c2[nH]c2ccccc24)C(=O)CC(C)(C)C3)CC1
[17]
  EC50: 11.4 µM (active)
[18]
  AC50: 9.48 µM (active)
[19]
  EC50: 13.2 µM (active)
[20]
  EC50: 10.4 µM (active)
[21]
  AC50: 7.77 µM (active)
[22]
  EC50: 12.9 µM (active)
[23]
  CC50: 15.6 µM (active)

## COc1cc(NC(=O)CSc2nc3ccccc3c(=O)n2C)ccc1NC(=O)c1ccco1
Estrogen receptor
  IC50: 32.5 µM (not active)
